Results as given in article PMC5772648, “Targeted NUDT5 inhibitors block hormone signaling in breast cancer cells” (Nature Communications, 2018).
Several values for one entry are separate records, joined by “and”; a condition that tells them apart may be missing. Identical values can stand only once.

Experiments:
T47D cells = assay: R5020-induced proliferation by BrdU incorporation; type: cell-based; conditions: 1.5 µM, 24 h after R5020
Method: T47D^M cells (1 × 10^4) were plated in a 96-well plate in the presence or absence of inhibitors 2 h prior to R5020 addition. The cell proliferation ELISA BrdU chemiluminescent assay (Roche) was performed according to the manufacturer’s instructions 24 h following hormone addition.

[1] = SafetyScreen 44 and ExpresSDiversity kinase panels (Eurofins Cerep Panlabs); design: species or system human; conditions: 10 µM
Method: TH5427 selectivity was also studied with the SafetyScreen44™ Panel and ExpresSDiversity Kinase Panel from Eurofins Cerep Panlabs at 10 µM, according to the company’s procedures.

MTH1 [2] = biological target: T1, MTH1 (Homo sapiens, UniProt P36639); assay: CETSA melt curve for MTH1; type: cell-based; design: endogenous in cells; conditions: 20 µM
Method: For CETSA experiments with cells treated in culture, 1 × 10^6 HL-60 were treated with DMSO (0.1 % v/v final) or 20 µM compound for 3 h at 37 °C and 5% CO2 in a humidified incubator. T47D^WT cells were treated instead with 80 µM TH1659, 15 µM TH5423/5424 and 1.5 µM TH5427. The cells were harvested, washed twice with PBS and resuspended in TBS with protease inhibitors, as above. Heating was identical as before, except that immediately following heating, the cell suspensions were snap frozen in a dry ice/ethanol bath and freeze-thawed, as previously, to lyse cells. Centrifugation at 20 000 × g for 20 min at 4 °C removed cellular debris and protein aggregates, and lysates were prepared for western blotting.

MTH1 [3] = biological target: T1, MTH1; assay: phosphohydrolase selectivity, malachite green assay; type: biochemical; design: His-tag (N); made in house; host or cells: E. coli BL21 (DE3) R3 pRARE2
Method: The selectivity assay for TH5427 against similar pyrophosphohydrolases was performed with MTH1, NUDT9, NUDT2, NUDT12, NUDT14, NUDT15, NUDT18, ITPase, dCTPase and dUTPase[9]. All analyses were performed by malachite green assay following 30 min incubation at room temperature in reaction buffer (100 mM Tris Acetate, pH 7.5, 40 mM NaCl, 10 mM MgAc, 1 mM DTT) with 100 µM TH5427 and preferred substrates for each enzyme (4.75 nM MTH1 with 100 µM dGTP, 8 nM NUDT15 with 100 µM dGTP, 8 nM NUDT2 with 16 µM AP4A, 2 nM NUDT5 with 50 µM ADPR, 20 nM NUDT9 with 50 µM ADPR, 20 nM NUDT12 with 50 µM NADH, 2 nM NUDT14 with 50 µM ADPR, 200 nM NUDT18 with 50 µM 8-oxo-dGTP, 0.2 nM ITPase with […], 35 nM dCTPase with 35 µM dCTP, and 1 nM dUTPase with 12.5 µM dUTP). MTH1, NUDT15, NUDT18, ITPase, dCTPase and dUTPase reactions were coupled with 0.2 U/mL pyrophosphatase, while NUDT2, NUDT5, NUDT9, NUDT12, and NUDT14 reactions were coupled by bovine intestinal phosphatase (10 U/mL).

purified NUDT5 = biological target: T2, purified NUDT5 (Homo sapiens, UniProt Q9UKK9); assay: biochemical conversion of 32P-PAR to ATP and AMP by PARG and NUDT5 (TLC); conditions: 0.6 µM, with NUDT5, PARG and PPi
T2 construct: His-tag (N); made in house; host or cells: E. coli BL21 (DE3) R3 pRARE2
Method: ^32P-NAD-labeled PAR was prepared as follows: 5 µg of purified GST-PARP1 was incubated with 2 µg of activated calf thymus DNA and 10 mM NAD +/^32P-NAD (Perkin-Elmer) at a ratio of 1:10 for 30 min at 25 °C and brought to a final volume of 100 µL with PARP reaction buffer (50 mM Tris, pH 7.5, 50 mM NaCl, 0.5 mM DTT, 0.1% Triton X-100 and protease inhibitors)[23]. After incubation, 0.4 µg of DNase was added to obtain DNA-free probes and the reaction was precipitated using TCA. The pellet was washed with acetone, dried and resuspended in 100 µl (10 mM Tris-HCl, pH 8.0, 1 mM EDTA, 0.1 % SDS, 100 µg/mL of Proteinase K) and incubated for 1 h at 37 °C, after which radio-labeled PAR was extracted using phenol/chloroform and ethanol precipitation. The pellet was resuspended in 50 µL (10 mM Tris-HCl, pH 8.0, 1 mM EDTA) and used for subsequent biochemical analyses.
Enzymatic conversion of radiolabeled ^32P-PAR by PARG and NUDT5 was performed using purified radio-labeled PAR (as described above) with the addition of recombinant bovine PARG in PAR glycohydroxylation buffer (PGB; 10 mM HEPES, pH 7.5, 150 mM KCl, 10 mM MgCl2)[23]. Recombinant PARG was added at the beginning of the reaction to a 10 µL final volume and incubated for 1 h at 25 °C. Recombinant NUDT5, pyrophosphate and/or TH5427 (0.6 µM) were added as indicated and incubated for an additional hour. […]

HL-60 or U-2 OS cells = assay: cell viability by resazurin; type: cell-based; conditions: 72 h, Supplementary Figs. 7 and 10b (HL-60, U-2 OS, T47D)
Method: Cell viability was assessed by resazurin[9]. 5000 HL-60 cells (or 1000 U-2 OS/2000 T47D cells) were seeded per well on a 96-well plate. The following morning, compounds (or the equivalent amount of DMSO) were added to obtain the final concentrations indicated and the cells were incubated at 37 °C for 72 h with resazurin added at 0.02 mg/mL for the last 2–6 h. Resorufin fluorescence was detected at […] with a Hidex Sense fluorescent plate reader. Viability curves were fit using the sigmoidal dose-response (variable slope) function in GraphPad Prism 7.

Cn1c(=O)c2c(nc(N3CCNCC3)n2Cc2nnc(-c3ccc(Cl)c(Cl)c3)o2)n(C)c1=O [TH5427]
progestin-dependent proliferation, BrdU incorporation (T47D cells): abrogated the progestin-dependent proliferation response
off-target interactions in panels [1]: only displayed a few significant interactions
thermal shift of MTH1 by CETSA (MTH1 [2]): no thermal shift
inhibition at 100 µM (MTH1 [3]; 100 µM): 82%
IC50 (MTH1 [3]; dose-response, malachite green assay): 20.3 µM and 20 µM
selectivity for NUDT5 over MTH1 (MTH1 [3]; in vitro, ratio of IC50 values): 690 fold
synthesis of ATP and AMP from 32P-PAR (purified NUDT5): inhibited the biochemical synthesis of ATP and AMP from ^32P-PAR
toxicity in cell lines tested (HL-60 or U-2 OS cells): non-toxic in cell lines tested up to 20 µM
